Test results reported in patent US20250114323A1, “METHODS OF REDUCING THE RISK OF CARDIOVASCULAR EVENTS IN PATIENTS WITH LEFT VENTRICULAR HYPERTROPHY” (LEXICON PHARMACEUTICALS, INC., priority 2023, published 2025).
Read-outs that look alike come from different tables or passages of the source.

Tests used:
[1] = system: patients with type 2 diabetes mellitus, chronic kidney disease, and risks for cardiovascular disease; assay type: in vivo
Experimental: A multicenter, double-blind clinical trial (SCORED) was conducted in which patients with type 2 diabetes mellitus (glycated hemoglobin level, ≥7%), chronic kidney disease (estimated glomerular filtration rate, 25 to 60 ml per minute per 1.73 m^2 of body-surface area), and risks for cardiovascular disease were randomly assigned in a 1:1 ratio to receive sotagliflozin or placebo. The primary end point was changed during the trial to the composite of the total number of deaths from cardiovascular causes, hospitalizations for heart failure, and urgent visits for heart failure.
Randomization was stratified according to criteria for heart failure (ejection fraction of ≤40% documented within the past year or hospitalization for heart failure during the previous 2 years) and geographic region (North America, Latin America, western Europe, eastern Europe, or rest of the world).
Persons 18 years of age or older with type 2 diabetes mellitus with a glycated hemoglobin level of 7% or higher, chronic kidney disease (eGFR, 25 to 60 ml per minute per 1.73 m^2 of body-surface area), and additional cardiovascular risk factors were enrolled. The risk factors consisted of at least one major cardiovascular risk factor in those 18 years of age or older or at least two minor cardiovascular risk factors in those 55 years of age or older. One exclusion criterion was any plan to start an SGLT2 inhibitor during the trial. Written informed consent was obtained from all the patients.
The original coprimary end points, assessed in time-to-event analyses, were the first occurrence of a major adverse cardiovascular event (MACE, defined as death from cardiovascular causes, non-fatal myocardial infarction, or nonfatal stroke) and the first occurrence of death from cardiovascular causes or hospitalization for heart failure (HHF). The primary end point was the total number of deaths from cardiovascular causes, hospitalizations for heart failure, and urgent visits for heart failure (UVHF).
The secondary end points were the total number of hospitalizations for heart failure and urgent visits for heart failure; deaths from cardiovascular causes; the total number of deaths from cardiovascular causes, hospitalizations for heart failure, nonfatal myocardial infarctions, and nonfatal strokes; the total number of deaths from cardiovascular causes, hospitalizations for heart failure, urgent visits for heart failure, and events of heart failure during hospitalization; the first occurrence of the composite of a sustained decrease of at least 50% in the eGFR from baseline for at least 30 days, long-term dialysis, renal trans-plantation, or a sustained eGFR of less than 15 ml per minute per 1.73 m^2 for at least 30 days; deaths from any cause; and the total number of deaths from cardiovascular causes, nonfatal myocardial infarctions, and nonfatal strokes. The use of total events allowed for a single patient to have more than one event contributing to the analysis. Subgroup analyses were prespecified.
All efficacy analyses followed the intention-to-treat principle. To allow for analyses of total events, competing-risk marginal models for recurrent events that were stratified according to heart-failure criteria and geographic region, with deaths not included in a given end point treated as competing terminal events, were applied to generate hazard ratios with Wald 95% confidence intervals and P values. Proportionality was confirmed by interaction terms between trial-group assignment and the logarithm of time. Event rates were summarized by the number of events per 100 patient-years of follow-up, and accrual of events over time was summarized by cumulative incidence functions.
Total events of myocardial infarction and total events of stroke were evaluated post hoc. Testing for differences between the two groups in adverse events was performed post hoc; P values were obtained from Pearson chi-square tests. […]

[2] = system: patients with reported LVH and no reported hypertension; assay type: in vivo
[3] = SCORED overall, sotagliflozin vs placebo
[4] = SCORED overall, sotagliflozin vs placebo, listed as sotagliflozin
[5] = reported LVH and no reported hypertension, N = 217
[6] = reported LVH and no reported hypertension, sotagliflozin vs placebo

`CCOc1ccc(Cc2cc([C@@H]3O[C@H](SC)[C@@H](O)[C@H](O)[C@H]3O)ccc2Cl)cc1` [Sotagliflozin, (2S,3R,4R,5S,6R)-2-(4-chloro-3-(4-ethoxybenzyl)phenyl)-6-(methylthio) tetrahydro-2H-pyran-3,4,5-triol] was tested, and the total hospitalizations ([1]; SCORED overall) was 1923, the “total patient-years spanned by hospitalizations” value ([1]; SCORED overall) was 104 patient-years and the “Deaths from any cause, event rate” value ([1]; SCORED overall, N = 5292) was 3.5 Events/100 patient-years. For the same molecule, the “Deaths from any cause, number of events” value ([1]; SCORED overall, N = 5292) was 246 number of events, the “Deaths from cardiovascular causes, event rate” value ([1]; SCORED overall, N = 5292) was 2.2 Events/100 patient-years and the “Deaths from cardiovascular causes, number of events” value ([1]; SCORED overall, N = 5292) was 155 number of events. For the same molecule, the “First occurrence of a sustained decrease of ≥50% in the eGFR from baseline for ≥30 days, long-term dialysis, renal transplantation, or sustained eGFR of <15 ml/min/1.73 m^2 for ≥30 days, event rate” value ([1]; SCORED overall, N = 5292) was 0.5 Events/100 patient-years, the “First occurrence of the composite renal end point (sustained ≥50% eGFR decrease, long-term dialysis, renal transplantation, or sustained eGFR <15), number of events” value ([1]; SCORED overall, N = 5292) was 37 number of events and the “Primary end point: total no. of deaths from cardiovascular causes, hospitalizations for HF, and urgent visits for HF, event rate” value ([1]; SCORED overall, N = 5292) was 5.6 Events/100 patient-years. For the same molecule, the “Primary end point: total no. of deaths from cardiovascular causes, hospitalizations for HF, and urgent visits for HF, number of events” value ([1]; SCORED overall, N = 5292) was 400 number of events, the “Total no. of deaths from cardiovascular causes, hospitalizations for HF, nonfatal myocardial infarctions, and nonfatal strokes, event rate” value ([1]; SCORED overall, N = 5292) was 7.6 Events/100 patient-years and the “Total no. of deaths from cardiovascular causes, hospitalizations for HF, nonfatal myocardial infarctions, and nonfatal strokes, number of events” value ([1]; SCORED overall, N = 5292) was 541 number of events. For the same molecule, the “Total no. of deaths from cardiovascular causes, hospitalizations for HF, urgent visits for HF, and events of HF during hospitalization, event rate” value ([1]; SCORED overall, N = 5292) was 6.4 Events/100 patient-years, the “Total no. of deaths from cardiovascular causes, hospitalizations for HF, urgent visits for HF, and events of HF during hospitalization, number of events” value ([1]; SCORED overall, N = 5292) was 453 number of events and the “Total no. of deaths from cardiovascular causes, nonfatal myocardial infarctions, and nonfatal strokes, event rate” value ([1]; SCORED overall, N = 5292) was 4.8 Events/100 patient-years. For the same molecule, the “Total no. of deaths from cardiovascular causes, nonfatal myocardial infarctions, and nonfatal strokes, number of events” value ([1]; SCORED overall, N = 5292) was 343 number of events, the “Total no. of hospitalizations for HF and urgent visits for HF, event rate” value ([1]; SCORED overall, N = 5292) was 3.5 Events/100 patient-years and the “Total no. of hospitalizations for HF and urgent visits for HF, number of events” value ([1]; SCORED overall, N = 5292) was 245 number of events. For the same molecule, the “composite renal end point, compared with placebo” value ([1]; SCORED overall, in words) was “did not differ significantly”, the “risk of the composite of deaths from cardiovascular causes, hospitalizations for heart failure, and urgent visits for heart failure, compared with placebo” value ([1]; SCORED overall, in words) was “lower risk” and the “Deaths from any cause: Hazard Ratio (95% CI)” value [1, 3] was 0.99 (0.83-1.18). For the same molecule, the “Deaths from cardiovascular causes: Hazard Ratio (95% CI)” value [1, 3] was 0.90 (0.73-1.12), the “First occurrence of the composite renal end point: Hazard Ratio (95% CI)” value [1, 3] was 0.71 (0.46-1.08) and the “Original coprimary end point, first occurrence of death from cardiovascular causes or hospitalization for heart failure: hazard ratio” value [1, 3] was 0.77. The “Original coprimary end point, first occurrence of death from cardiovascular causes, nonfatal myocardial infarction, or nonfatal stroke: hazard ratio” value [1, 3] was 0.84, the “Primary end point: Hazard Ratio (95% CI)” value [1, 3] was 0.74 (0.63-0.88) and the “Total no. of deaths from cardiovascular causes, hospitalizations for HF, nonfatal myocardial infarctions, and nonfatal strokes: Hazard Ratio (95% CI)” value [1, 3] was 0.72 (0.63-0.83). For the same molecule, the “Total no. of deaths from cardiovascular causes, hospitalizations for HF, urgent visits for HF, and events of HF during hospitalization: Hazard Ratio (95% CI)” value [1, 3] was 0.76 (0.64-0.89), the “Total no. of deaths from cardiovascular causes, nonfatal myocardial infarctions, and nonfatal strokes: Hazard Ratio (95% CI)” value [1, 3] was 0.77 (0.65-0.91) and the “Total no. of hospitalizations for HF and urgent visits for HF: Hazard Ratio (95% CI)” value [1, 3] was 0.67 (0.55-0.82). For the same molecule, the “Deaths from cardiovascular causes: Hazard Ratio (95% CI)” value [1, 4] was 0.90, the “Primary end point: Hazard Ratio (95% CI)” value [1, 4] was 0.74 and the “Total no. of hospitalizations for HF and urgent visits for HF: Hazard Ratio (95% CI)” value [1, 4] was 0.67. The “acute kidney injury, percentage of patients” value ([1]; human, in vivo) was 2.2%, the “diabetic ketoacidosis, percentage of patients” value ([1]; human, in vivo) was 0.6% and the “diarrhea, percentage of patients” value ([1]; human, in vivo) was 8.5%. For the same molecule, the “genital mycotic infections, percentage of patients” value ([1]; human, in vivo) was 2.4%, the “percentage of patients in whom hypertension developed” value ([1]; human, in vivo) was 2.6% and the “percentage of patients in whom hypotension developed” value ([1]; human, in vivo) was 2.6%. For the same molecule, the “percentage of patients with a serious adverse event” value ([1]; human, in vivo) was 23.4%, the “volume depletion, percentage of patients” value ([1]; human, in vivo) was 5.3% and the “Diarrhea, genital mycotic infections, volume depletion, and diabetic ketoacidosis, frequency compared with placebo” value ([1]; in vivo) was “more common”. For the same molecule, the “bone fractures, urinary tract infections, severe hypoglycemia, acute kidney injury, or amputations, compared with placebo” value ([1]; in vivo) was “no significant between-group differences”, the “percentage of patients with adverse events that occurred or worsened during the treatment period or with events leading to withdrawal of the trial regimen, compared with placebo” value ([1]; in vivo) was “no significant differences” and the “effect on the SCORED study's primary endpoint in the presence or absence of reported LVH or hypertension at baseline” value ([2]; FIG. 1, in words) was “consistent”. The “Acute Kidney Injury, count” value ([2]; human, in vivo) was 6, the “Acute Kidney Injury, figure in brackets” value ([2]; human, in vivo) was 2.8 and the “Any Malignancies of Special Interest, count” value ([2]; human, in vivo) was 4. The “Any Malignancies of Special Interest, figure in brackets” value ([2]; human, in vivo) was 1.8, the “Bone Fractures, count” value ([2]; human, in vivo) was 7 and the “Bone Fractures, figure in brackets” value ([2]; human, in vivo) was 3.2. For the same molecule, the “Diabetic Ketoacidosis, count” value ([2]; human, in vivo) was 1, the “Diabetic Ketoacidosis, figure in brackets” value ([2]; human, in vivo) was 0.5 and the “Diarrhea, count” value ([2]; human, in vivo) was 19. The “Diarrhea, figure in brackets” value ([2]; human, in vivo) was 8.8, the “Genital Mycotic Infections, count” value ([2]; human, in vivo) was 2 and the “Genital Mycotic Infections, figure in brackets” value ([2]; human, in vivo) was 0.9. The “Pancreatitis, count” value ([2]; human, in vivo) was 1, the “Pancreatitis, figure in brackets” value ([2]; human, in vivo) was 0.5 and the “Severe Hypoglycemia, count” value ([2]; human, in vivo) was 2. The “Severe Hypoglycemia, figure in brackets” value ([2]; human, in vivo) was 0.9, the “Urinary Tract Infections, count” value ([2]; human, in vivo) was 20 and the “Urinary Tract Infections, figure in brackets” value ([2]; human, in vivo) was 9.2. For the same molecule, the “Venous Thrombotic Events, count” value ([2]; human, in vivo) was 3, the “Venous Thrombotic Events, figure in brackets” value ([2]; human, in vivo) was 1.4 and the “Volume Depletion, count” value ([2]; human, in vivo) was 10. The “Volume Depletion, figure in brackets” value ([2]; human, in vivo) was 4.6, the “hazard ratio in patients with LVH without hypertension compared with the general population of patients at risk of cardiovascular events” value ([2]; in words) was “markedly lower” and the “risk of CV events in patients with reported LVH and no reported hypertension” value ([2]; in words) was “significantly reduced”. For the same molecule, the “3-point MACE + HHF, event rate” value [2, 5] was 5.5 Events per 100 patient-years, the “3-point MACE, event rate” value [2, 5] was 3.1 Events per 100 patient-years and the “3-point MACE + HHF: Hazard Ratio (95% CI)” value [2, 6] was 0.46 (0.21, 0.99). For the same molecule, the “3-point MACE: Hazard Ratio (95% CI)” value [2, 6] was 0.52 (0.21, 1.28).
